# Reference: patent publication US9018392B1, “Compounds, compositions and methods for crop enhancement” (Active AgriProducts Inc., priority 2014, dated 2015)
# Tests used:
# Type in all cases: in vivo
# wheat [1] = assay: Experiment 2(c) wheat root growth, laboratory conditions, agar culture medium; conditions: 40 ppm seed treatment, 8 days, FIG. 2(c)
# Procedure: For the Experiments described below, application of 1,2-dimethyl-4-dimethylaminomethyl-5-hydroxy benzimidazole (referred to herein as INTRINSIC™) was by way of seed treatment. Treated seeds were prepared by mixing 1.0 kg of seed and 2.0 mL of an aqueous solution of INTRINSIC™ comprising 0.1% potassium hydroxide in a ZIPLOC™ bag. Control seeds were prepared by mixing 1.0 kg of seed and 2.0 mL of aqueous 0.1% potassium hydroxide solution in a ZIPLOC™ bag. The seeds and solutions were sufficiently mixed to wet the seeds. The seeds were dried after being wetted. […] Experiment 2(a) tested the effects of 20 ppm and 40 ppm INTRINSIC™ on wheat root growth under laboratory conditions. […] Experiment 2(b) tested the effects of 40 ppm INTRINSIC™ on wheat root growth under greenhouse conditions. Experiment 2(c) tested the effects of 40 ppm INTRINSIC™ on wheat root growth under laboratory conditions. Treated and control seeds were grown in agar culture medium. Results at 8 days are shown Figure in FIG. 2(c).
# canola [2] = assay: Experiment 3 canola root growth, greenhouse conditions; conditions: 40 ppm seed treatment; 10 days
# Procedure: (§1) For the Experiments described below, application of 1,2-dimethyl-4-dimethylaminomethyl-5-hydroxy benzimidazole (referred to herein as INTRINSIC™) was by way of seed treatment. Treated seeds were prepared by mixing 1.0 kg of seed and 2.0 mL of an aqueous solution of INTRINSIC™ comprising 0.1% potassium hydroxide in a ZIPLOC™ bag. Control seeds were prepared by mixing 1.0 kg of seed and 2.0 mL of aqueous 0.1% potassium hydroxide solution in a ZIPLOC™ bag. The seeds and solutions were sufficiently mixed to wet the seeds. The seeds were dried after being wetted. […] Experiment 3 tested the effects of 40 ppm INTRINSIC™ on canola root growth under greenhouse conditions.
# soy bean = assay: Experiment 4 soy bean root growth, greenhouse conditions; conditions: 40 ppm seed treatment; 10 days
# Procedure: as §1, with “4” for “3”, “soy bean” for “canola”
# corn = assay: Experiment 5 corn root growth, greenhouse conditions; conditions: 40 ppm seed treatment; 10 days
# Procedure: as §1, with “5” for “3”, “corn” for “canola”
# canola [3] = assay: Experiment 7 canola growth, field test conditions, first site; conditions: 20 ppm and 40 ppm seed treatment, 10 days
# Procedure: For the Experiments described below, application of 1,2-dimethyl-4-dimethylaminomethyl-5-hydroxy benzimidazole (referred to herein as INTRINSIC™) was by way of seed treatment. Treated seeds were prepared by mixing 1.0 kg of seed and 2.0 mL of an aqueous solution of INTRINSIC™ comprising 0.1% potassium hydroxide in a ZIPLOC™ bag. Control seeds were prepared by mixing 1.0 kg of seed and 2.0 mL of aqueous 0.1% potassium hydroxide solution in a ZIPLOC™ bag. The seeds and solutions were sufficiently mixed to wet the seeds. The seeds were dried after being wetted. […] Experiments 7 and 8 tested the effects of 20 ppm and 40 ppm INTRINSIC™, on canola growth under field test conditions.
# wheat [4] = assay: Experiment 9 wheat yield, field test conditions; conditions: crop maturation (approximately 90 days)
# Procedure: For the Experiments described below, application of 1,2-dimethyl-4-dimethylaminomethyl-5-hydroxy benzimidazole (referred to herein as INTRINSICTM) was by way of seed treatment. Treated seeds were prepared by mixing 1.0 kg of seed and 2.0 mL of an aqueous solution of INTRINSICTM comprising 0.1% potassium hydroxide in a ZIPLOCTM bag. Control seeds were prepared by mixing 1.0 kg of seed and 2.0 mL of aqueous 0.1% potassium hydroxide solution in a ZIPLOCTM bag. The seeds and solutions were sufficiently mixed to wet the seeds. The seeds were dried after being wetted. […] Experiment 9 tested the effects of 40 ppm INTRINSICTM, CRUISER […], and the combination of the two, on wheat yield under field test conditions. CRUISER […] was applied per the manufacturer's recommendations. FIGS. 9(a) and 9(b) display yield results at crop maturation (approximately 90 days), showing greater yield crops from INTRINSICTM-treated seeds (whether alone or in combination with CRUISER […]) compared to crops from control seeds.
structure (smiles),measurement,setting,value
"Cc1nc2c(CN(C)C)c(O)ccc2n1C [INTRINSIC™, 1,2-dimethyl-4-dimethylaminomethyl-5-hydroxy benzimidazole]",number of roots compared to control seedlings,wheat [1],greater number of roots
same,root length compared to control seedlings,wheat [1],longer roots
same,shoot length compared to control seedlings,wheat [1],longer shoots
same,foliage size compared to control seedlings,canola [2],larger foliage
same,number of roots compared to control seedlings,canola [2],greater number of roots
same,root length compared to control seedlings,canola [2],longer roots
same,foliage size compared to control seedlings,soy bean,larger foliage
same,number of roots compared to control seedlings,soy bean,greater number of roots
same,foliage size compared to control seedlings,corn,larger foliage
same,number of roots compared to control seedlings,corn,greater number of roots
same,root length compared to control seedlings,canola [3],significant increases
same,root surface area compared to control seedlings,canola [3],significant increases
same,root weight compared to control seedlings,canola [3]; another set of tests,significant increases
same,shoot weight compared to control seedlings,canola [3]; another set of tests,significant increases
same,wheat yield compared to crops from control seeds,wheat [4]; 40 ppm seed treatment alone,greater yield
same,wheat yield compared to crops from control seeds,wheat [4]; 40 ppm seed treatment in combination with CRUISER MAXX™,greater yield
